In patent publication US20260256792A1, “TREATMENT OF CHRONIC SPONTANEOUS URTICARIA BY ADMINISTERING (R)-2-[3-[4-AMINO-3-(2-FLUORO-4-PHENOXY-PHENYL)PYRAZOLO[3,4-D]PYRIMIDIN-1-YL]PIPERIDINE-1-CARBONYL]-4-METHYL-4-[4-(OXETAN-3-YL)PIPERAZIN-1-YL]PENT-2-ENENITRILE” (priority 2023, published 2026):

System: angioedema in CSU patients
Assay: Phase 2 CSU study: angioedema activity score over 7 days (AAS7)
Format: in vivo, human
Details: for Non-responder n (%), AAS7 = 0 / OR (95% CI) for rilzabrutinib vs. placebo, AAS7 = 0 / RRD (%) for rilzabrutinib vs. placebo (95% CI), AAS7 = 0 / Responder n (%), AAS7 = 0: outlier removed
Source text: The study comprises a 12 week, randomized, double-blind, placebo-controlled, multi-center, dose-ranging efficacy and safety phase, followed by a 40 week open label extension (OLE) phase (see FIG. 1). The study consists of three phases and an optional OLE phase. […] The weekly angioedema activity score (AAS7) was proposed as a tertiary endpoint. […] Patients were to complete the AAS using the e-diary. The e-diary was to be used once daily on the same time of each day recording of participant's answers to the angioedema activity score over 7 days (AAS7) questionnaire.

[1] = 400 mg TID, Week 1, ITT, angioedema at baseline
[2] = 400 mg TID, Week 1, omalizumab-naïve
[3] = 400 mg TID, Week 1, omalizumab-naïve, angioedema at baseline
[4] = 400 mg TID, Week 2, ITT, angioedema at baseline
[5] = 400 mg TID, Week 2, omalizumab-naïve
[6] = 400 mg TID, Week 2, omalizumab-naïve, angioedema at baseline
[7] = 400 mg TID, Week 3, ITT, angioedema at baseline
[8] = 400 mg TID, Week 3, omalizumab-naïve
[9] = 400 mg TID, Week 3, omalizumab-naïve, angioedema at baseline
[10] = 400 mg TID, Week 4, ITT, angioedema at baseline
[11] = 400 mg TID, Week 4, omalizumab-naïve

CC(C)(C=C(C#N)C(=O)N1CCC[C@@H](n2nc(-c3ccc(Oc4ccccc4)cc3F)c3c(N)ncnc32)C1)N1CCN(C2COC2)CC1 [rilzabrutinib, (R)-2-[3-[4-amino-3-(2-fluoro-4-phenoxy-phenyl)pyrazolo[3,4-d]pyrimidin-1-yl]piperidine-1-carbonyl]-4-methyl-4-[4-(oxetan-3-yl)piperazin-1-yl]pent-2-enenitrile]
Participants with AAS7 = 0, Responder n (%) (400 mg QPM, Week 12, omalizumab-naïve, angioedema at baseline): 6 (22.2) n (%)
LS mean change from baseline in AAS7 at Week 12 (400 mg TID, ITT population, angioedema at baseline): −43.36 points
AAS7 % Change difference for rilzabrutinib vs. placebo LS Mean (95% CI) [1]: −34.55 (−66.00, −3.09) %
AAS7 % Change from baseline LS Mean (SE) [1]: −54.51 (9.77) %
AAS7 Change difference for rilzabrutinib vs. placebo LS Mean (95% CI) [1]: −15.05 (−28.44, −1.67)
AAS7 Change from baseline LS Mean (SE) [1]: −29.55 (4.16)
AAS7 Post-baseline Mean (SD) [1]: 17.50 (22.29)
Non-responder n (%), AAS7 = 0 [2]: 16 (47.1) n (%)
OR (95% CI) for rilzabrutinib vs. placebo, AAS7 = 0 [2]: 2.576
RRD (%) for rilzabrutinib vs. placebo (95% CI), AAS7 = 0 [2]: 21.8 %
Responder n (%), AAS7 = 0 [2]: 18 (52.9) n (%)
AAS7 % Change difference for rilzabrutinib vs. placebo LS Mean (95% CI) [3]: −36.35 (−71.01, −1.69) %
AAS7 % Change from baseline LS Mean (SE) [3]: −53.40 (10.59) %
AAS7 = 0, Non-responder n (%) [3]: 16 (69.6) n (%)
AAS7 = 0, OR (95% CI) for rilzabrutinib vs. placebo [3]: 9.250
AAS7 = 0, RRD (%) for rilzabrutinib vs. placebo (95% CI) [3]: 21.8 %
AAS7 Change difference for rilzabrutinib vs. placebo LS Mean (95% CI) [3]: −16.03 (−30.69, −1.38)
AAS7 Change from baseline LS Mean (SE) [3]: −29.80 (4.48)
AAS7 Post-baseline Mean (SD) [3]: 18.96 (23.24)
Participants with AAS7 = 0, Responder n (%) [3]: 7 (30.4) n (%)
AAS7 % Change from baseline LS Mean (SE) [4]: −60.12 (12.38) %
AAS7 Change difference for rilzabrutinib vs. placebo LS Mean (95% CI) [4]: −11.45 (−23.02, 0.12)
AAS7 Change from baseline LS Mean (SE) [4]: −32.35 (4.37)
AAS7 Post-baseline Mean (SD) [4]: 15.52 (20.15)
Non-responder n (%), AAS7 = 0 [5]: 16 (47.1) n (%)
OR (95% CI) for rilzabrutinib vs. placebo, AAS7 = 0 [5]: 1.556
RRD (%) for rilzabrutinib vs. placebo (95% CI), AAS7 = 0 [5]: 10.2 %
Responder n (%), AAS7 = 0 [5]: 18 (52.9) n (%)
AAS7 % Change difference for rilzabrutinib vs. placebo LS Mean (95% CI) [6]: −22.03 (−57.92, 13.85) %
AAS7 % Change from baseline LS Mean (SE) [6]: −59.25 (13.33) %
AAS7 = 0, Non-responder n (%) [6]: 14 (60.9) n (%)
AAS7 = 0, OR (95% CI) for rilzabrutinib vs. placebo [6]: 1.922
AAS7 = 0, RRD (%) for rilzabrutinib vs. placebo (95% CI) [6]: 12.9 %
AAS7 Post-baseline Mean (SD) [6]: 17.03 (20.90)
Participants with AAS7 = 0, Responder n (%) [6]: 9 (39.1) n (%)
AAS7 % Change difference for rilzabrutinib vs. placebo LS Mean (95% CI) [7]: −24.93 (−66.27, 16.41) %
AAS7 % Change from baseline LS Mean (SE) [7]: −73.45 (15.58) %
AAS7 Change difference for rilzabrutinib vs. placebo LS Mean (95% CI) [7]: −12.00 (−23.87, −0.13)
AAS7 Change from baseline LS Mean (SE) [7]: −36.15 (4.48)
AAS7 Post-baseline Mean (SD) [7]: 13.26 (21.30)
Non-responder n (%), AAS7 = 0 [8]: 12 (35.3) n (%)
OR (95% CI) for rilzabrutinib vs. placebo, AAS7 = 0 [8]: 3.010
RRD (%) for rilzabrutinib vs. placebo (95% CI), AAS7 = 0 [8]: 26.5 %
Responder n (%), AAS7 = 0 [8]: 22 (64.7) n (%)
AAS7 % Change difference for rilzabrutinib vs. placebo LS Mean (95% CI) [9]: −25.10 (−70.77, 20.57) %
AAS7 % Change from baseline LS Mean (SE) [9]: −72.78 (16.93) %
AAS7 = 0, Non-responder n (%) [9]: 11 (47.8) n (%)
AAS7 = 0, OR (95% CI) for rilzabrutinib vs. placebo [9]: 3.063
AAS7 = 0, RRD (%) for rilzabrutinib vs. placebo (95% CI) [9]: 22.5 %
AAS7 Post-baseline Mean (SD) [9]: 14.08 (22.48)
Participants with AAS7 = 0, Responder n (%) [9]: 12 (52.2) n (%)
AAS7 % Change difference for rilzabrutinib vs. placebo LS Mean (95% CI) [10]: −41.77 (−78.55, −4.98) %
AAS7 % Change from baseline LS Mean (SE) [10]: −78.35 (13.78) %
AAS7 Change difference for rilzabrutinib vs. placebo LS Mean (95% CI) [10]: −15.67 (−27.11, −4.22)
AAS7 Change from baseline LS Mean (SE) [10]: −38.27 (4.30)
AAS7 Post-baseline Mean (SD) [10]: 11.20 (15.95)
Non-responder n (%), AAS7 = 0 [11]: 18 (52.9) n (%)
RRD (%) for rilzabrutinib vs. placebo (95% CI), AAS7 = 0 [11]: 1.1 %
Responder n (%), AAS7 = 0 [11]: 16 (47.1) n (%)
